{"source": "patent US4943562A", "about": "“Tetra- and pentapeptides containing the lysyl-arginyl-aspartyl sequence and their applications as medicines, particularly anti-thrombotic medicines” (Institut des Vaisseaux et du Sang, priority 1987, dated 1990)", "key": {"[1]": {"assay": "water-solubility of the peptide", "format": "physicochemical", "text": "This peptide is hydrophilic and its water-solubility is very good."}, "intravascular thrombus [2]": {"test_system": "intravascular thrombus", "assay": "experimental thrombosis: intravascular thrombus induced by a specific lesion of the arterial wall, guineapig", "format": "in vivo", "details": "direct intravenous injection", "protocol": "Experimental work on thrombosis carried out on two different animal species (rat and guineapig) have shown that the peptides according to the invention, in particular the peptides of the general formula […] (II), viz. particularly peptide […] (peptide 1) and peptide […] […] The type of thrombus which is thus induced takes into account the participation of the blood platelets against which the peptide exerts its activity but also the reactivity of the injured vascular wall."}, "intravascular thrombus [3]": {"test_system": "intravascular thrombus", "assay": "experimental thrombosis: intravascular thrombus induced by a specific lesion of the arterial wall, rat", "format": "in vivo", "details": "direct intravenous injection", "protocol": "Experimental work on thrombosis carried out on two different animal species (rat and guineapig) have shown that the peptides according to the invention, in particular the peptides of the general formula […] (II), viz. particularly peptide […] (peptide 1) and peptide […] The type of thrombus which is thus induced takes into account the participation of the blood platelets against which the peptide exerts its activity but also the reactivity of the injured vascular wall. […] In the same experimental thrombosis system, when a peptide according to the invention is used, particularly a peptide of the formula […]"}}, "note": "Peptide text beside a SMILES is read from it."}
{"smiles": "N=C(N)NCCC[C@H](NC(=O)[C@@H](N)CCCCN)C(=O)N[C@@H](CC(=O)O)C(=O)N[C@@H](CO)C(=O)O", "note": "[peptide 1, Lys-Arg-Asp-Ser] (H-KRDS-OH)", "values": [{"measurement": "water-solubility", "setting": "[1]", "result": "very good"}]}
{"smiles": "N=C(N)NCCC[C@H](NC(=O)[C@H](CC(=O)O)NC(=O)[C@H](CCCNC(=N)N)NC(=O)[C@@H](N)CCCCN)C(=O)O", "note": "[peptide 6, Lys-Arg-Asp-Arg] (H-KRDR-OH)", "values": [{"measurement": "anti-thrombotic activity", "setting": "intravascular thrombus [2]", "result": "exert an anti-thrombotic activity"}, {"measurement": "anti-thrombotic activity", "setting": "intravascular thrombus [3]", "result": "exert an anti-thrombotic activity"}]}
